Measurements as given in the supplement of paper PMC11061612.

Assays:
[1] = system: LS-123 (Colorectal Carcinoma); test: combination Emax (second highest fraction inhibited in the dose matrix, 72 h); higher = more inhibition; extreme values may be limits of the assay
How it was run: (§1)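 Bliss excess equals the observed combination effect minus the expected value EA + EB − EA·EB, where EA and EB are the effects of each agent alone. Combination Emax is the second-highest inhibition within the matrix. Inhibition was scaled from CellTiter-Glo 2.0 luminescence, with 0 set by vehicle wells and 1 by blank wells, after 72 hours of two-drug dosing of cells plated in 1536-well plates.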

[2] = system: HH (T-Cell Non-Hodgkin's Lymphoma); test: as above
How it was run: as §1

KS-1 (Glioblastoma) [3] = test: as above
How it was run: as §1

[4] = system: LCLC-97TM1 (Non-Small Cell Lung Carcinoma); test: as above
How it was run: as §1

[5] = system: OE21 (Esophageal Squamous Cell Carcinoma); test: as above
How it was run: as §1

A673 (Ewing's Sarcoma) = test: Bliss excess, mean over the matrix (fraction); higher = more synergy
How it was run: as §1

[6] = system: SNU-16 (Gastric Carcinoma); test: as above
How it was run: as §1

BPH-1 (Non-Cancerous) = test: as above
How it was run: as §1

[7] = system: NCI-H1568 (Lung Adenocarcinoma); test: as above
How it was run: as §1

[8] = system: HeLa (Cervical Carcinoma); test: as above
How it was run: as §1

KS-1 (Glioblastoma) [9] = test: as above
How it was run: as §1

NCI-H2722 (Mesothelioma) = test: as above
How it was run: as §1

CAL-72 (Osteosarcoma) = test: as above
How it was run: as §1

[10] = system: Detroit562 (Head and Neck Carcinoma); test: as above
How it was run: as §1

[11] = system: BE-13 (T-Lymphoblastic Leukemia); test: as above
How it was run: as §1

[12] = system: KYAE-1 (Esophageal Adenocarcinoma); test: as above
How it was run: as §1

[13] = system: KMRC-20 (Kidney Carcinoma); test: as above
How it was run: as §1

[14] = system: LCLC-97TM1 (Non-Small Cell Lung Carcinoma); test: as above
How it was run: as §1

[15] = system: HuH-7 (Hepatocellular Carcinoma); test: as above
How it was run: as §1

[16] = system: SW1573 (Lung Adenocarcinoma); test: as above
How it was run: as §1

COc1nnc2ccc(N3CCC(c4ccc(OCCN5CCN(C)C(=O)[C@H]5C)cc4)CC3)nn12 [AZD5153] + Cc1c2c(nn1C)CSCc1cc(n(C)n1)CSc1cc(c3ccccc3c1)OCCCc1c(C(=O)O)n(C)c3c-2c(Cl)ccc13 [AZD5991] (first compound max 1 µM, 7x7, partner max 1 µM)
combination Emax [1]: 0.406 | combination Emax [2]: 1 | combination Emax (KS-1 (Glioblastoma) [3]): 0.629 | combination Emax [4]: 0.733 | combination Emax [5]: 0.83 | Bliss excess (A673 (Ewing's Sarcoma)): 0.0041 | Bliss excess [6]: 0.0403 | Bliss excess (BPH-1 (Non-Cancerous)): -0.0093 | Bliss excess [7]: -0.0309 | Bliss excess [8]: 0.0151 | Bliss excess (KS-1 (Glioblastoma) [9]): -0.0479 | Bliss excess (NCI-H2722 (Mesothelioma)): -0.016 | Bliss excess (CAL-72 (Osteosarcoma)): 0.0287 | Bliss excess [10]: -0.0459 | Bliss excess [11]: 0.0075 | Bliss excess [12]: -0.0291 | Bliss excess [13]: -0.0135 | Bliss excess [14]: -0.017 | Bliss excess [15]: 0.0546 | Bliss excess [16]: -0.0366

CC(=O)c1c(C)c2cnc(Nc3ccc(N4CCNCC4)cn3)nc2n(C2CCCC2)c1=O [Palbociclib] + Cc1c2c(nn1C)CSCc1cc(n(C)n1)CSc1cc(c3ccccc3c1)OCCCc1c(C(=O)O)n(C)c3c-2c(Cl)ccc13 [AZD5991] (first compound max 10 µM, 7x7, partner max 1 µM)
combination Emax [1]: 0.207 | combination Emax [2]: 0.911 | combination Emax (KS-1 (Glioblastoma) [3]): 0.266 | combination Emax [4]: 0.263 | combination Emax [5]: 0.393 | Bliss excess (A673 (Ewing's Sarcoma)): -0.0903 | Bliss excess [6]: -0.0089 | Bliss excess (BPH-1 (Non-Cancerous)): -0.0476 | Bliss excess [7]: -0.0149 | Bliss excess [8]: -0.0225 | Bliss excess (KS-1 (Glioblastoma) [9]): -0.0556 | Bliss excess (NCI-H2722 (Mesothelioma)): -0.0649 | Bliss excess (CAL-72 (Osteosarcoma)): -0.0073 | Bliss excess [10]: -0.0131 | Bliss excess [11]: -0.0277 | Bliss excess [12]: 0.0035 | Bliss excess [13]: -0.0782 | Bliss excess [14]: -0.0149 | Bliss excess [15]: -0.011 | Bliss excess [16]: -0.0431

COc1cccc(OCCCN)c1-c1cc(Nc2cnc(C#N)cn2)n[nH]1 [Prexasertib] + C[C@@H]1COCCN1C2=NC(=NC(=C2)C3(CC3)[S@](=N)(=O)C)C4=C5C=CNC5=NC=C4 [AZD6738] (first compound max 1 µM, 7x7, partner max 10 µM)
combination Emax [1]: 0.796 | combination Emax [2]: 0.674 | combination Emax (KS-1 (Glioblastoma) [3]): 0.581 | combination Emax [4]: 0.941 | combination Emax [5]: 0.745 | Bliss excess (A673 (Ewing's Sarcoma)): -0.014 | Bliss excess [6]: -0.0058 | Bliss excess (BPH-1 (Non-Cancerous)): -0.015 | Bliss excess [7]: -0.0668 | Bliss excess [8]: 0.005 | Bliss excess (KS-1 (Glioblastoma) [9]): -0.0298 | Bliss excess (NCI-H2722 (Mesothelioma)): -0.002 | Bliss excess (CAL-72 (Osteosarcoma)): -0.0244 | Bliss excess [10]: -0.0311 | Bliss excess [11]: -0.0018 | Bliss excess [12]: 0.0651 | Bliss excess [13]: 0.0013 | Bliss excess [14]: -0.0351 | Bliss excess [15]: 0.0392 | Bliss excess [16]: -0.0066

NC1(C(=O)N[C@@H](CCO)c2ccc(Cl)cc2)CCN(c2ncnc3[nH]ccc23)CC1 [Capivasertib] + COc1nnc2ccc(N3CCC(c4ccc(OCCN5CCN(C)C(=O)[C@H]5C)cc4)CC3)nn12 [AZD5153] (first compound max 10 µM, 7x7, partner max 1 µM)
combination Emax [1]: 0.418 | combination Emax [2]: 0.439 | combination Emax (KS-1 (Glioblastoma) [3]): 0.755 | combination Emax [4]: 0.805 | combination Emax [5]: 0.882 | Bliss excess (A673 (Ewing's Sarcoma)): -0.0386 | Bliss excess [6]: 0.0344 | Bliss excess (BPH-1 (Non-Cancerous)): -0.0542 | Bliss excess [7]: -0.0032 | Bliss excess [8]: -0.0021 | Bliss excess (KS-1 (Glioblastoma) [9]): -0.0211 | Bliss excess (NCI-H2722 (Mesothelioma)): 0.0016 | Bliss excess (CAL-72 (Osteosarcoma)): 0.005 | Bliss excess [10]: -0.0212 | Bliss excess [11]: -0.0281 | Bliss excess [12]: 0.0352 | Bliss excess [13]: 0.0004 | Bliss excess [14]: 0.0079 | Bliss excess [15]: -0.0061 | Bliss excess [16]: -0.0278

Cc1c2c(nn1C)CSCc1cc(n(C)n1)CSc1cc(c3ccccc3c1)OCCCc1c(C(=O)O)n(C)c3c-2c(Cl)ccc13 [AZD5991] + CC1(C)CCC(CN2CCN(c3ccc(C(=O)NS(=O)(=O)c4ccc(NCC5CCOCC5)c([N+](=O)[O-])c4)c(Oc4cnc5[nH]ccc5c4)c3)CC2)=C(c2ccc(Cl)cc2)C1 [Venetoclax] (first compound max 1 µM, 7x7, partner max 1 µM)
combination Emax [1]: 0.142 | combination Emax [2]: 0.858 | combination Emax (KS-1 (Glioblastoma) [3]): 0.146 | combination Emax [4]: 0.138 | combination Emax [5]: 0.454 | Bliss excess (A673 (Ewing's Sarcoma)): 0.0666 | Bliss excess [6]: 0.0558 | Bliss excess (BPH-1 (Non-Cancerous)): -0.0148 | Bliss excess [7]: -0.0334 | Bliss excess [8]: 0.0343 | Bliss excess (KS-1 (Glioblastoma) [9]): -0.0307 | Bliss excess (NCI-H2722 (Mesothelioma)): -0.0733 | Bliss excess (CAL-72 (Osteosarcoma)): 0.0676 | Bliss excess [10]: -0.0119 | Bliss excess [11]: 0.106 | Bliss excess [12]: 0.0049 | Bliss excess [13]: -0.0206 | Bliss excess [14]: -0.023 | Bliss excess [15]: -0.0272 | Bliss excess [16]: -0.0549

CCN(CCO)CCCOc1ccc2c(Nc3cc(CC(=O)Nc4cccc(F)c4)[nH]n3)ncnc2c1 [AZD2811] + O=C(c1cc(Cc2n[nH]c(=O)c3ccccc23)ccc1F)N1CCN(C(=O)C2CC2)CC1 [Olaparib] (first compound max 1 µM, 7x7, partner max 10 µM)
combination Emax [1]: 0.301 | combination Emax [2]: 0.0537 | combination Emax (KS-1 (Glioblastoma) [3]): 0.363 | combination Emax [4]: 0.319 | combination Emax [5]: 0.255 | Bliss excess (A673 (Ewing's Sarcoma)): -0.0906 | Bliss excess [6]: -0.0101 | Bliss excess (BPH-1 (Non-Cancerous)): 0.0466 | Bliss excess [7]: -0.0472 | Bliss excess [8]: -0.0154 | Bliss excess (KS-1 (Glioblastoma) [9]): 0.0053 | Bliss excess (NCI-H2722 (Mesothelioma)): -0.016 | Bliss excess (CAL-72 (Osteosarcoma)): 0.0343 | Bliss excess [10]: 0.0133 | Bliss excess [11]: -0.0163 | Bliss excess [12]: 0.0093 | Bliss excess [13]: 0.0017 | Bliss excess [14]: 0.0148 | Bliss excess [15]: -0.072 | Bliss excess [16]: 0.0123

Cc1c2c(nn1C)CSCc1cc(n(C)n1)CSc1cc(c3ccccc3c1)OCCCc1c(C(=O)O)n(C)c3c-2c(Cl)ccc13 [AZD5991] + C[C@@H]1COCCN1C2=NC(=NC(=C2)C3(CC3)[S@](=N)(=O)C)C4=C5C=CNC5=NC=C4 [AZD6738] (first compound max 1 µM, 7x7, partner max 10 µM)
combination Emax [1]: 0.609 | combination Emax [2]: 0.759 | combination Emax (KS-1 (Glioblastoma) [3]): 0.587 | combination Emax [4]: 0.894 | combination Emax [5]: 0.844 | Bliss excess (A673 (Ewing's Sarcoma)): 0.0077 | Bliss excess [6]: 0.0167 | Bliss excess (BPH-1 (Non-Cancerous)): 0.0039 | Bliss excess [7]: 0.0409 | Bliss excess [8]: 0.0217 | Bliss excess (KS-1 (Glioblastoma) [9]): 0.0147 | Bliss excess (NCI-H2722 (Mesothelioma)): 0.0224 | Bliss excess (CAL-72 (Osteosarcoma)): 0.0213 | Bliss excess [10]: 0.0364 | Bliss excess [11]: 0.0135 | Bliss excess [12]: 0.0054 | Bliss excess [13]: -0.0153 | Bliss excess [14]: 0.0401 | Bliss excess [15]: -0.0057 | Bliss excess [16]: 0.0337
